According to US20050266575A1 (priority 2004, published 2005):
No end group written: not given here.

Experiments:
[1] = target: T1, human nociceptin receptor (ORL-1) (Homo sapiens, UniProt P41146); assay: Nociceptin receptor binding assay: binding of 125I-Tyr14-nociceptin to ORL-1 on HEK-293 cell membranes; conditions: for Ki: competition with 0.5 nM 125I-Tyr14-nociceptin, HEK-293 cell membranes, 3 experiments in duplicate; for Ki(x)/Ki(WT): ratio of variant Ki to nociceptin Ki
T1 construct: expressed in transfected cells
T1 sequence (P41146 whole entry): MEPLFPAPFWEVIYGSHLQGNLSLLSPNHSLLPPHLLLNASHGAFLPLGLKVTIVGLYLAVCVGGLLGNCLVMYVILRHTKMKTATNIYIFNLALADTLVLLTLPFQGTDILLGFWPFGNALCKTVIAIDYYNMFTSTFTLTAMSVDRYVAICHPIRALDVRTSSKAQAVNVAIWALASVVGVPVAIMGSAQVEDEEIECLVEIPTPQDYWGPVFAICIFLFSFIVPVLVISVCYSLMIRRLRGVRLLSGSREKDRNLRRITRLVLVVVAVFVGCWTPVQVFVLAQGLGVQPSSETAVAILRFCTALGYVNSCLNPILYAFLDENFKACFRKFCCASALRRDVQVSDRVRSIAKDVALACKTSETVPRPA
Description: Binding of peptides to the ORL-1 Receptor. […] ORL-1 membranes were diluted in binding buffer such that 25 μL containing 1 microgram (μg) of membrane was added to each well of a standard 96-well microtiter in binding buffer. […] Plates were incubated for two hours at room temperature and the reactions were filtered over GF/C Filterplates (Perkin Elmer-NEN), prewetted in 0.03% polyethleneimine, in a Filtermate 196 apparatus (Packard). Plates were washed six times with binding buffer in the filtration apparatus, then dried under vacuum for 1-2 hours. Twenty five microliters (25 μL) Microscint 20 (Packard) per well was added to solubilize bound radioactivity. The plates were then sealed and counted on a Packard Top Count to determine radioactivity bound to the membranes. Curves were fitted and IC50 values determined using Graphpad Prizm software (v3.0).

ORL1 [2] = target: T2, ORL1 (Homo sapiens, UniProt P41146); assay: Calcium flux (FLIPR) in carbachol-sensitized HEK-293 cells expressing ORL-1 receptor; type: cell-based; set-up: expressed in transfected cells; host or cells: HEK-293 cells expressing ORL-1 receptor; conditions: for EC50: HEK-293 cells expressing ORL-1, pretreated with 100 μM carbachol, read-out: EC50 (calcium release); for EC50(x)/EC50(WT): ratio of variant EC50 to nociceptin EC50
Description: HEK-293 cells expressing ORL-1 receptor were plated at a density of 50,000 cells/well in a total volume of 50 ↑L onto 96-well plates. Two days later cells were prepared for assay using the FLIPR Calcium Assay Kit (Molecular Devices) according to manufacturer's directions, with the exception that the volume of dye mix added to each well was 50 μL instead of 100 μL. Cells were then treated with 100 μM carbachol in 100 μL. […] Data points were collected at one per second for 120 seconds, then one every three seconds for 30 seconds for a total collection time of 150 seconds after both the first and second additions.
This produced a “percent of carbachol response” for each dose. The experiment was repeated 6 times and the high and low values for each concentration were dropped. The data were used to generate EC50 curves using GraphPad Prizm v.3.0 software.
Target sequence in this assay (P41146 whole entry): as above

ORL1 [3] = target: T2, ORL1; conditions: cited from earlier work
Target sequence in this assay (P41146 whole entry, species assumed): as the sequence (P41146 whole entry) above

Molecule | Ki [1] [nM] | Ki(x)/Ki(WT) [1] | EC50 (ORL1 [2]) [nM] | EC50(x)/EC50(WT) (ORL1 [2]) | fold lower affinity for ORL1 than nociceptin (ORL1 [3]) [fold]
CCCC[C@H](NC(=O)CNC(=O)[C@@H](NC(=O)[C@H](Cc1ccccc1)NC(=O)CNC(=O)CNC(=O)[C@@H](N)Cc1ccccc1)[C@@H](C)O)C(=O)N[C@@H](CCCNC(=N)N)C(=O)N[C@@H](CCCCN)C(=O)N[C@@H](CO)C(=O)N[C@@H](C)C(=O)N[C@@H](CCCNC(=N)N)C(=O)N[C@@H](CCCCN)C(=O)N[C@@H](CC(C)C)C(=O)N[C@@H](C)C(=O)N[C@@H](CC(N)=O)C(=O)N[C@@H](CCC(N)=O)C(=O)O [Peptide A7nleu] | 0.5 | 0.7 | 29 | 12 | 
CCCC[C@H](NC(=O)[C@H](CO)NC(=O)[C@H](CCCCN)NC(=O)[C@H](CCCNC(=N)N)NC(=O)[C@H](C)NC(=O)CNC(=O)[C@@H](NC(=O)[C@H](Cc1ccccc1)NC(=O)CNC(=O)CNC(=O)[C@@H](N)Cc1ccccc1)[C@@H](C)O)C(=O)N[C@@H](CCCNC(=N)N)C(=O)N[C@@H](CCCCN)C(=O)N[C@@H](CC(C)C)C(=O)N[C@@H](C)C(=O)N[C@@H](CC(N)=O)C(=O)N[C@@H](CCC(N)=O)C(=O)O [Peptide A11nleu] | 1.9 | 2.6 | 4.2 | 1.8 | 
AGGFTGARKSARKLANQ [Peptide F1A] | 91 | 127 | 1440 | 601 | 
FAGFTGARKSARKLANQ [Peptide G2A] | 191 | 265 | 1390 | 581 | 
FGAFTGARKSARKLANQ [Peptide G3A] | 1.6 | 2.2 | 13 | 5.5 | 
FGGATGARKSARKLANQ [Peptide F4A] | 188 | 262 | 3880 | 1617 | 
FGGFAGARKSARKLANQ [Peptide T5A] | 6.4 | 8.9 | 159 | 66 | 
FGGFLGARKSARKLANQ [Peptide T5L] | 2.2 | 3.1 | 14 | 5.7 | 
FGGFSGARKSARKLANQ [Peptide T5S] | 1.4 | 2.0 | 27 | 11 | 
FGGFTAARKSARKLANQ [Peptide G6A] | 1.5 | 2.1 | 39 | 16 | 
FGGFTGAAKSARKLANQ [Peptide R8A] | 50 | 69 | 69 | 29 | 
FGGFTGAKKSAKKLANQ [R8K/R12K] | 3.9 | 5.4 | 53.5 | 22 | 
FGGFTGAKKSARKLANQ [Peptide R8K] | 32 | 45 | 64 | 27 | 
FGGFTGARASARKLANQ [Peptide K9A] | 1.5 | 2.1 | 2.8 | 1.2 | 
FGGFTGARKAARKLANQ [Peptide S10A] | 0.8 | 1.2 | 42 | 18 | 
FGGFTGARKSAAKLANQ [Peptide R12A] | 2.8 | 3.9 | 1.3 | 0.5 | 
FGGFTGARKSAKKLANQ [Peptide R12K] | 0.8 | 1.1 | 2.4 | 1.0 | 
FGGFTGARKSARALANQ [Peptide K13A] | 1.5 | 2.1 | 1.1 | 0.5 | 
FGGFTGARKSARKAANQ [Peptide L14A] | 0.2 | 0.3 | 7 | 2.9 | 
FGGFTGARKSARKLAAQ [Peptide N16A] | 0.3 | 0.4 | 1.7 | 0.7 | 
FGGFTGARKSARKLANA [Peptide Q17A] | 0.8 | 1.1 | 12 | 4.8 | 
FGGFTGARKSARKLGNQ [Peptide A15G] | 0.2 | 0.3 | 1.9 | 0.8 | 
FGGFTGARKSGRKLANQ [Peptide A11G] | 3.2 | 4.4 | 11 | 4.8 | 
FGGFTGARKSLRKLANQ [Peptide A11L] | 0.9 | 1.2 | 8.3 | 3.5 | 
FGGFTGARKSSRKLANQ [Peptide A11S] | 1.2 | 1.7 | 1.2 | 0.5 | 
FGGFTGGRKSARKLANQ [Peptide A7G] | 7.7 | 11 | 18 | 7.4 | 
FGGFTGLRKSARKLANQ [Peptide A7L] | 0.8 | 1.1 | 13 | 5.2 | 
FGGFTGSRKSARKLANQ [Peptide A7S] | 1.5 | 2.1 | 5.6 | 2.3 | 
Y G G F L R R I R P K L K W D N Q [Dynorphin A] |  |  |  |  | 100
